Species on record: Rattus norvegicus
Experiment: Open TG-GATES - Regimen: Daily Repeat
Assay type: toxicity, organism-based, Sprague-Dawley
Design: regimen Daily Repeat, gender Male, age 6 weeks
Details: in vivo, po, 100 mg/kg, route gavage, dose level High; for APTT / Bas / Eos / Fbg / Hb / Ht / Lym / MCH / MCHC / MCV / Mono / Neu / PT / Plat / RBC / Ret / WBC: tissue Blood; for KIDNEY_L / KIDNEY_R / KIDNEY_TOTAL: tissue Kidney; for LIVER: tissue Liver; for A/G / ALP / ALT / AST / BUN / CRE / Ca / Cl / DBIL / GLC / IP / K / LDH / Na / PL / RALB / TBIL / TC / TG / TP / gamma-GTP: tissue Plasma

OCCOCCN1CCN(C(c2ccccc2)c2ccc(Cl)cc2)CC1 (configuration not stated) [HYDROXYZINE]
TERMINAL_BW (72 h, time 3 day): 215.1 g
APTT (72 h, time 3 day): 17.1 s
Bas (72 h, time 3 day): 0%
Eos (72 h, time 3 day): 0.8%
Fbg (72 h, time 3 day): 297 mg/dL
Hb (72 h, time 3 day): 13.6 g/dL
Ht (72 h, time 3 day): 40.5%
Lym (72 h, time 3 day): 73.4%
MCH (72 h, time 3 day): 20.9 pg
MCHC (72 h, time 3 day): 33.5%
MCV (72 h, time 3 day): 62.5 fL
Mono (72 h, time 3 day): 3.2%
Neu (72 h, time 3 day): 21.8%
PT (72 h, time 3 day): 15.7 s
Plat (72 h, time 3 day): 128.8 x10_4/uL
RBC (72 h, time 3 day): 648.2 x10_4/ul
Ret (72 h, time 3 day): 5.3%
WBC (72 h, time 3 day): 97.2 x10_2/uL
KIDNEY_L (72 h, time 3 day): 1 g
KIDNEY_R (72 h, time 3 day): 1 g
KIDNEY_TOTAL (72 h, time 3 day): 2 g
LIVER (72 h, time 3 day): 11.2 g
A/G (72 h, time 3 day): 0.8
ALP (72 h, time 3 day): 2293.8 IU/L
ALT (72 h, time 3 day): 42.6 IU/L
AST (72 h, time 3 day): 72.8 IU/L
BUN (72 h, time 3 day): 17.6 mg/dL
CRE (72 h, time 3 day): 0.2 mg/dL
Ca (72 h, time 3 day): 10.9 mg/dL
Cl (72 h, time 3 day): 104.8 meq/L
DBIL (72 h, time 3 day): 0.016 mg/dL
GLC (72 h, time 3 day): 170.8 mg/dL
IP (72 h, time 3 day): 7.8 mg/dL
K (72 h, time 3 day): 3.9 meq/L
LDH (72 h, time 3 day): 56.2 IU/L
Na (72 h, time 3 day): 142.6 meq/L
PL (72 h, time 3 day): 126.2 mg/dL
RALB (72 h, time 3 day): 2.6 g/dL
TBIL (72 h, time 3 day): 0.05 mg/dL
TC (72 h, time 3 day): 67.8 mg/dL
TG (72 h, time 3 day): 62.6 mg/dL
TP (72 h, time 3 day): 5.6 g/dL
gamma-GTP (72 h, time 3 day): 1 IU/L
TERMINAL_BW ([…], time 7 day): 246 g
TERMINAL_BW ([…], time 14 day): 300.3 g
TERMINAL_BW ([…], time 28 day): 378.6 g
APTT ([…], time 7 day): 18 s
Bas ([…], time 7 day): 0%
Eos ([…], time 7 day): 0.8%
Fbg ([…], time 7 day): 297 mg/dL
Hb ([…], time 7 day): 13.6 g/dL
Ht ([…], time 7 day): 40.3%
Lym ([…], time 7 day): 81%
MCH ([…], time 7 day): 21 pg
MCHC ([…], time 7 day): 33.7%
MCV ([…], time 7 day): 62.3 fL
Mono ([…], time 7 day): 2.2%
Neu ([…], time 7 day): 15.4%
PT ([…], time 7 day): 15.5 s
Plat ([…], time 7 day): 109.3 x10_4/uL
RBC ([…], time 7 day): 647.2 x10_4/ul
Ret ([…], time 7 day): 4.6%
WBC ([…], time 7 day): 79.7 x10_2/uL
APTT ([…], time 14 day): 18.5 s
Bas ([…], time 14 day): 0.4%
Eos ([…], time 14 day): 1%
Fbg ([…], time 14 day): 300.4 mg/dL
Hb ([…], time 14 day): 13.7 g/dL
Ht ([…], time 14 day): 40.2%
Lym ([…], time 14 day): 78%
MCH ([…], time 14 day): 20 pg
MCHC ([…], time 14 day): 34.2%
MCV ([…], time 14 day): 58.5 fL
Mono ([…], time 14 day): 3%
Neu ([…], time 14 day): 16.6%
PT ([…], time 14 day): 16.2 s
Plat ([…], time 14 day): 124.9 x10_4/uL
RBC ([…], time 14 day): 686.4 x10_4/ul
Ret ([…], time 14 day): 5.2%
WBC ([…], time 14 day): 128.4 x10_2/uL
APTT ([…], time 28 day): 22.4 s
Bas ([…], time 28 day): 0.4%
Eos ([…], time 28 day): 0.8%
Fbg ([…], time 28 day): 290.2 mg/dL
Hb ([…], time 28 day): 14.7 g/dL
Ht ([…], time 28 day): 42.3%
Lym ([…], time 28 day): 79.6%
MCH ([…], time 28 day): 18.5 pg
MCHC ([…], time 28 day): 34.8%
MCV ([…], time 28 day): 53.1 fL
Mono ([…], time 28 day): 2.4%
Neu ([…], time 28 day): 16.8%
PT ([…], time 28 day): 15.7 s
Plat ([…], time 28 day): 109.6 x10_4/uL
RBC ([…], time 28 day): 796.6 x10_4/ul
Ret ([…], time 28 day): 2.9%
WBC ([…], time 28 day): 135.7 x10_2/uL
KIDNEY_L ([…], time 7 day): 1.1 g
KIDNEY_R ([…], time 7 day): 1.1 g
KIDNEY_TOTAL ([…], time 7 day): 2.2 g
KIDNEY_L ([…], time 14 day): 1.3 g
KIDNEY_R ([…], time 14 day): 1.4 g
KIDNEY_TOTAL ([…], time 14 day): 2.7 g
KIDNEY_L ([…], time 28 day): 1.6 g
KIDNEY_R ([…], time 28 day): 1.5 g
KIDNEY_TOTAL ([…], time 28 day): 3.2 g
LIVER ([…], time 7 day): 15.2 g
LIVER ([…], time 14 day): 18.1 g
LIVER ([…], time 28 day): 21.7 g
A/G ([…], time 7 day): 0.8
ALP ([…], time 7 day): 2036.8 IU/L
ALT ([…], time 7 day): 34 IU/L
AST ([…], time 7 day): 61.4 IU/L
BUN ([…], time 7 day): 18 mg/dL
CRE ([…], time 7 day): 0.2 mg/dL
Ca ([…], time 7 day): 11 mg/dL
Cl ([…], time 7 day): 104.6 meq/L
DBIL ([…], time 7 day): 0.018 mg/dL
GLC ([…], time 7 day): 186 mg/dL
IP ([…], time 7 day): 7.9 mg/dL
K ([…], time 7 day): 4.4 meq/L
LDH ([…], time 7 day): 62 IU/L
Na ([…], time 7 day): 141.6 meq/L
PL ([…], time 7 day): 138.2 mg/dL
RALB ([…], time 7 day): 2.6 g/dL
TBIL ([…], time 7 day): 0.046 mg/dL
TC ([…], time 7 day): 76.8 mg/dL
TG ([…], time 7 day): 55 mg/dL
TP ([…], time 7 day): 5.8 g/dL
gamma-GTP ([…], time 7 day): 0.8 IU/L
A/G ([…], time 14 day): 0.8
ALP ([…], time 14 day): 2097.8 IU/L
ALT ([…], time 14 day): 39.6 IU/L
AST ([…], time 14 day): 66 IU/L
BUN ([…], time 14 day): 17.2 mg/dL
CRE ([…], time 14 day): 0.2 mg/dL
Ca ([…], time 14 day): 10.7 mg/dL
Cl ([…], time 14 day): 102.8 meq/L
DBIL ([…], time 14 day): 0.018 mg/dL
GLC ([…], time 14 day): 193 mg/dL
IP ([…], time 14 day): 7.6 mg/dL
K ([…], time 14 day): 4 meq/L
LDH ([…], time 14 day): 94.4 IU/L
Na ([…], time 14 day): 141.4 meq/L
PL ([…], time 14 day): 141.4 mg/dL
RALB ([…], time 14 day): 2.7 g/dL
TBIL ([…], time 14 day): 0.044 mg/dL
TC ([…], time 14 day): 75 mg/dL
TG ([…], time 14 day): 62.4 mg/dL
TP ([…], time 14 day): 5.9 g/dL
gamma-GTP ([…], time 14 day): 0.8 IU/L
A/G ([…], time 28 day): 0.8
ALP ([…], time 28 day): 1321.8 IU/L
ALT ([…], time 28 day): 33.2 IU/L
AST ([…], time 28 day): 58.8 IU/L
BUN ([…], time 28 day): 17.8 mg/dL
CRE ([…], time 28 day): 0.2 mg/dL
Ca ([…], time 28 day): 10.9 mg/dL
Cl ([…], time 28 day): 103.6 meq/L
DBIL ([…], time 28 day): 0.012 mg/dL
GLC ([…], time 28 day): 193.8 mg/dL
IP ([…], time 28 day): 7 mg/dL
K ([…], time 28 day): 4.5 meq/L
LDH ([…], time 28 day): 81.8 IU/L
Na ([…], time 28 day): 141.8 meq/L
PL ([…], time 28 day): 117.6 mg/dL
RALB ([…], time 28 day): 2.9 g/dL
TBIL ([…], time 28 day): 0.038 mg/dL
TC ([…], time 28 day): 64 mg/dL
TG ([…], time 28 day): 41.6 mg/dL
TP ([…], time 28 day): 6.4 g/dL
gamma-GTP ([…], time 28 day): 1 IU/L

Source: ChEMBL document CHEMBL3885861, “Open TG-GATES”
